Test results as given in patent publication US20060241162A1, “Optically active (R)-hydantoin derivative” (priority 2005, published 2006).
“Also recorded” adds a separate entry of the source.

Tested on: model rats for renal insufficiency
Test: Suppressive action to the progression of renal failure in adenine-induced renal insufficiency model rats
Assay type: in vivo, Wistar-strain male rats
From the text: (1) Suppressive Action of the Optical Isomer to the Progression of Renal Failure
Adenine was orally administered to Wistar-strain male rats of eight weeks age to prepare a renal insufficiency model. […] Further, a value of creatinine clearance (mL/kg/hr) decreased from 315.3±13.8 to 25.7±4.4 whereupon renal functions lowered to about one-tenth.
From the 7th to the 17th days from administration of adenine, each of (S)-(−)- 5-hydroxy-1-methylhydantoin, (R)-(+)-5-hydroxy-1-methylhydantoin and the racemate at the dose of 100 mg/kg or 200 mg/kg was orally administered to the rat in which renal insufficiency was induced by adenine. The creatinine levels in blood before and after the administration of the test drug were compared whereupon a suppressive action of the test drug to an increase of creatinine (ΔCr) accompanied by the progress of renal insufficiency was checked and the results are shown in FIG. 1 and FIG. 2. Five rats were used as a group for the test. The average value ± standard error was calculated and the significant difference between the test drug group and the diseased control group was statistically analyzed by means of Dunnett's test or Student-t test (*; p<0.05).

SMILES: CN1C(=O)NC(=O)[C@H]1O [(R)-(+)-5-hydroxy-1-methylhydantoin]
- suppressive action to the progression of renal failure (as compared with the S-form and the racemate, oral, listed as R-form): excellent suppressive action; also recorded: particularly an excellent suppressive effect
- suppressive action to an increase of creatinine in blood (ΔCr) (oral 100 mg/kg or 200 mg/kg, 7th to 17th day of adenine, vs diseased control, p<0.05, FIG. 1 and FIG. 3): significantly suppressed
